The target of experiment [1] is T1, Monoglyceride lipase (Homo sapiens) (UniProt Q99685).
T1 sequence (whole entry): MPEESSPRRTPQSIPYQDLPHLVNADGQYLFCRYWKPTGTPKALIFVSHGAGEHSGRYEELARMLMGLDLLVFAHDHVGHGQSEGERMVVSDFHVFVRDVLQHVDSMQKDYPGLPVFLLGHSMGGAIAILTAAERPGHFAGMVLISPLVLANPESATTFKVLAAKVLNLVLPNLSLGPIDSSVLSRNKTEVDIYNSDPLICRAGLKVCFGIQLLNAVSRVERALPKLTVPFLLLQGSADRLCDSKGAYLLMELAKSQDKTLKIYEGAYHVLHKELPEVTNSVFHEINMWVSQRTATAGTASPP
Briefly: (§1) Inhibition of MAGL (unknown origin) after 10 mins.

Another experiment addresses T2, Monoglyceride lipase (Homo sapiens, UniProt Q99685).
T2 sequence (Q99685 whole entry): T1 sequence (whole entry)
The experiment is described as §1.

Experiment [2] has as its target T1, Monoglyceride lipase (Homo sapiens). Briefly: Inhibition of MAGL (unknown origin) at 500 uM after 10 mins relative to control.
For experiment [3] the target is unchanged. Briefly: Inhibition of MAGL (unknown origin) at […] after 10 mins relative to control.
Experiment [4] shares this target. Briefly: Inhibition of MAGL (unknown origin) at 125 uM after 10 mins relative to control.
Experiment [5] has the same target. Briefly: Inhibition of MAGL (unknown origin) at 250 uM after 10 mins relative to control.
Experiment [6] shares this target. As to conditions: 2 mM.
Description: Inhibition of MAGL (unknown origin) at 2 mM after 10 mins relative to control

Each structure is given as a SMILES string.

A word on the inhibition: it is the drop in the measured response relative to a control, in per cent. By IC50 is commonly meant the concentration that gives 50% inhibition. The low end stands for greater potency, the high end for weaker potency. In the case of `Cc1coc2c1C(=O)C(=O)c1c-2ccc2c1CCCC2(C)C` [TANSHINONE IIA], the inhibition entry in experiment [1] was “Dose-dependent effect”; in experiment [2], 85%; in experiment [3], 95%; in experiment [4], 72%; in experiment [5], 79%. The compound also gave an IC50 against Monoglyceride lipase of 48 µM.

On to `CC1(C)CC[C@]2(C(=O)O)CC[C@]3(C)C(=CC[C@@H]4[C@@]5(C)CC[C@H](O)C(C)(C)[C@@H]5CC[C@]43C)[C@@H]2C1`, for which, in experiment [3], the inhibition was found to be 1%.

Take `CC1(C)OC(=O)C=C[C@]2(C)[C@H]3CC[C@@]4(C)[C@H](c5ccoc5)OC(=O)[C@H]5O[C@]54[C@]3(C)C(=O)C[C@@H]12`: the inhibition in experiment [3] was found to be 4%.

For `Cc1coc2c1C(=O)C(=O)c1c-2ccc2c(C)cccc12`, the inhibition in experiment [2] stood at 31%; in experiment [3], 58%; in experiment [4], 12%; in experiment [5], 15%.

The compound `O=C(Oc1ccc([N+](=O)[O-])cc1)N1CCC(C(O)(c2ccc3c(c2)OCO3)c2ccc3c(c2)OCO3)CC1` came in with an inhibition in experiment [6] of 94%.

Take `O=c1c(-c2ccc(O)cc2)coc2c([C@@H]3O[C@H](CO)[C@@H](O)[C@H](O)[C@H]3O)c(O)ccc12`: the inhibition in experiment [3] was 52%.

For the origin of these results see ChEMBL document CHEMBL3596143, “Identification of tanshinone IIA as a natural monoacylglycerol lipase inhibitor by combined in silico and in vitro approach” (Medchemcomm, 2014).
